Patent publication US6534524B1, “Indazole compounds and pharmaceutical compositions for inhibiting protein kinases, and methods for their use” (Agouron Pharmaceuticals, Inc., priority 1999, dated 2003)

Test system: human umbilical vein endothelial cells (HUVEC)
Assay: HUVEC proliferation assay (VEGF-stimulated, MTT)
Format: cell-based
Conditions: Library III; HUVEC proliferation; nominal concentration of 0.5 nM; crude reaction mixtures

| SMILES | % inhibition |
| --- | --- |
| O=C(Nc1ccc(F)cc1)c1ccccc1Sc1ccc2c(/C=C/c3ccccn3)n[nH]c2c1 | −1% |
| O=C(Nc1cccc2cc(O)ccc12)c1ccccc1Sc1ccc2c(/C=C/c3ccccn3)n[nH]c2c1 | −22% |
| Cc1ccc2ccccc2c1NC(=O)c1ccccc1Sc1ccc2c(/C=C/c3ccccn3)n[nH]c2c1 | −19% |
| O=C(Nc1ccc(O)cc1Cl)c1ccccc1Sc1ccc2c(/C=C/c3ccccn3)n[nH]c2c1 | 7% |
| O=C(Nc1nc[nH]c1[N+](=O)[O-])c1ccccc1Sc1ccc2c(/C=C/c3ccccn3)n[nH]c2c1 | 7% |
| O=C(Nc1ncnc2[nH]cnc12)c1ccccc1Sc1ccc2c(/C=C/c3ccccn3)n[nH]c2c1 | 18% |
| O=C(Nc1nc(Cl)ncc1F)c1ccccc1Sc1ccc2c(/C=C/c3ccccn3)n[nH]c2c1 | 11% |
| O=C(Nc1ccc2c(c1)C(=O)NC2=O)c1ccccc1Sc1ccc2c(/C=C/c3ccccn3)n[nH]c2c1 | −31% |
| NC(=O)c1[nH]cnc1NC(=O)c1ccccc1Sc1ccc2c(/C=C/c3ccccn3)n[nH]c2c1 | −1% |
| CC(C)(C)c1ccc(O)c(NC(=O)c2ccccc2Sc2ccc3c(/C=C/c4ccccn4)n[nH]c3c2)c1 | −3% |
| Cc1cccc(O)c1NC(=O)c1ccccc1Sc1ccc2c(/C=C/c3ccccn3)n[nH]c2c1 | 11% |
| O=C(Nc1cc(Cl)ccc1Cl)c1ccccc1Sc1ccc2c(/C=C/c3ccccn3)n[nH]c2c1 | 15% |
| Cc1cccc(C(C)C)c1NC(=O)c1ccccc1Sc1ccc2c(/C=C/c3ccccn3)n[nH]c2c1 | −37% |
| Cc1cccc(C)c1NC(=O)c1ccccc1Sc1ccc2c(/C=C/c3ccccn3)n[nH]c2c1 | −20% |
| COc1cccc(C)c1NC(=O)c1ccccc1Sc1ccc2c(/C=C/c3ccccn3)n[nH]c2c1 | 8% |
| C=C(C)c1ccccc1NC(=O)c1ccccc1Sc1ccc2c(/C=C/c3ccccn3)n[nH]c2c1 | −41% |
| CC(C)(C)c1nnc(NC(=O)c2ccccc2Sc2ccc3c(/C=C/c4ccccn4)n[nH]c3c2)s1 | −28% |
| Cc1nnc(NC(=O)c2ccccc2Sc2ccc3c(/C=C/c4ccccn4)n[nH]c3c2)s1 | −20% |
| O=C(Nc1nnc(C2CC2)s1)c1ccccc1Sc1ccc2c(/C=C/c3ccccn3)n[nH]c2c1 | −20% |
| O=C(NCC1CCCCC1)c1ccccc1Sc1ccc2c(/C=C/c3ccccn3)n[nH]c2c1 | 3% |
| O=C(NC1CCCCC1C1CCCCC1)c1ccccc1Sc1ccc2c(/C=C/c3ccccn3)n[nH]c2c1 (stereo not drawn) | 11% |

| SMILES | % inhibition |
| --- | --- |
| CCOc1ccccc1CCNC(=O)c1ccccc1Sc1ccc2c(/C=C/c3ccccn3)n[nH]c2c1 | 1% |
| COc1ccc(OC)c(NC(=O)c2ccccc2Sc2ccc3c(/C=C/c4ccccn4)n[nH]c3c2)c1 | −5% |
| COc1cc(NC(=O)c2ccccc2Sc2ccc3c(/C=C/c4ccccn4)n[nH]c3c2)cc(OC)c1 | −60% |
| COC(=O)c1ccc(NC(=O)c2ccccc2Sc2ccc3c(/C=C/c4ccccn4)n[nH]c3c2)c(C)c1 | −46% |
| O=C(NCC(F)(F)C(F)(F)F)c1ccccc1Sc1ccc2c(/C=C/c3ccccn3)n[nH]c2c1 | −22% |
| N#CC(NC(=O)c1ccccc1Sc1ccc2c(/C=C/c3ccccn3)n[nH]c2c1)c1ccc(F)cc1 (stereo not drawn) | −20% |
| O=C(NCc1ccc(F)cc1Cl)c1ccccc1Sc1ccc2c(/C=C/c3ccccn3)n[nH]c2c1 | −7% |
| CCCCC(CO)NC(=O)c1ccccc1Sc1ccc2c(/C=C/c3ccccn3)n[nH]c2c1 (stereo not drawn) | −28% |
| O=C(Nc1ccc(O)c(F)c1)c1ccccc1Sc1ccc2c(/C=C/c3ccccn3)n[nH]c2c1 | −10% |
| O=C(NC(CO)CC1CCCCC1)c1ccccc1Sc1ccc2c(C=Cc3ccccn3)n[nH]c2c1 (stereo not drawn) | 13% |
| CC(C)(C)C(CO)NC(=O)c1ccccc1Sc1ccc2c(C=Cc3ccccn3)n[nH]c2c1 (stereo not drawn) | −7% |
| O=C(Nc1cccc(-c2ccccc2)c1)c1ccccc1Sc1ccc2c(/C=C/c3ccccn3)n[nH]c2c1 | −13% |
| CSCCC(CO)NC(=O)c1ccccc1Sc1ccc2c(/C=C/c3ccccn3)n[nH]c2c1 (stereo not drawn) | −45% |
| CCC(C)C(CO)NC(=O)c1ccccc1Sc1ccc2c(C=Cc3ccccn3)n[nH]c2c1 (stereo not drawn) | −40% |
| CCOC(CCCNC(=O)c1ccccc1Sc1ccc2c(/C=C/c3ccccn3)n[nH]c2c1)OCC | −11% |
| O=C(NCCSCCO)c1ccccc1Sc1ccc2c(/C=C/c3ccccn3)n[nH]c2c1 | −31% |
| CC(C)c1ccccc1NC(=O)c1ccccc1Sc1ccc2c(/C=C/c3ccccn3)n[nH]c2c1 | −30% |
| CSCCC(CO)NC(=O)c1ccccc1Sc1ccc2c(C=Cc3ccccn3)n[nH]c2c1 (stereo not drawn) | −11% |
| CC(C)(CO)NC(=O)c1ccccc1Sc1ccc2c(/C=C/c3ccccn3)n[nH]c2c1 | −2% |
| CSCCNC(=O)c1ccccc1Sc1ccc2c(/C=C/c3ccccn3)n[nH]c2c1 | 18% |
| CCSCCNC(=O)c1ccccc1Sc1ccc2c(/C=C/c3ccccn3)n[nH]c2c1 | 7% |

| SMILES | % inhibition |
| --- | --- |
| CCCCN(CCCC)CCNC(=O)c1ccccc1Sc1ccc2c(/C=C/c3ccccn3)n[nH]c2c1 | 1% |
| COC(OC)C(C)NC(=O)c1ccccc1Sc1ccc2c(/C=C/c3ccccn3)n[nH]c2c1 (stereo not drawn) | 0% |
| O=C(NC(CO)(CO)CO)c1ccccc1Sc1ccc2c(/C=C/c3ccccn3)n[nH]c2c1 | 14% |
| CCC(CO)(CO)NC(=O)c1ccccc1Sc1ccc2c(/C=C/c3ccccn3)n[nH]c2c1 | 61% |
| CCC(C)C(NC(=O)c1ccccc1Sc1ccc2c(C=Cc3ccccn3)n[nH]c2c1)C(=O)NO (stereo not drawn) | 9% |
| O=C(Nc1ccc2ncccc2c1)c1ccccc1Sc1ccc2c(/C=C/c3ccccn3)n[nH]c2c1 | 1% |
| O=C(Nc1ccccc1-c1ccccc1)c1ccccc1Sc1ccc2c(/C=C/c3ccccn3)n[nH]c2c1 | 1% |
| O=C(Nc1cccc(C(F)(F)F)c1)c1ccccc1Sc1ccc2c(/C=C/c3ccccn3)n[nH]c2c1 | 4% |
| O=C(Nc1cccc2cnccc12)c1ccccc1Sc1ccc2c(/C=C/c3ccccn3)n[nH]c2c1 | 1% |
| O=C(Nc1ccc(Cl)c(Cl)c1)c1ccccc1Sc1ccc2c(/C=C/c3ccccn3)n[nH]c2c1 | 8% |
| O=C(Nc1ccc(Cl)cc1)c1ccccc1Sc1ccc2c(/C=C/c3ccccn3)n[nH]c2c1 | −12% |
| O=C(Nc1ccc(O)cc1)c1ccccc1Sc1ccc2c(/C=C/c3ccccn3)n[nH]c2c1 | 52% |
| CS(=O)(=O)c1ccc(NC(=O)c2ccccc2Sc2ccc3c(/C=C/c4ccccn4)n[nH]c3c2)cc1 | 19% |
| O=C(Nc1ccccc1O)c1ccccc1Sc1ccc2c(/C=C/c3ccccn3)n[nH]c2c1 | 13% |
| O=C(Nc1ccccc1-n1cccc1)c1ccccc1Sc1ccc2c(/C=C/c3ccccn3)n[nH]c2c1 | −7% |
| O=C(Nc1ccc2c(O)cccc2c1)c1ccccc1Sc1ccc2c(/C=C/c3ccccn3)n[nH]c2c1 | −26% |
| O=C(Nc1ccc2cn[nH]c2c1)c1ccccc1Sc1ccc2c(/C=C/c3ccccn3)n[nH]c2c1 | 7% |
| O=C(Nc1ccc2c(c1)OCO2)c1ccccc1Sc1ccc2c(/C=C/c3ccccn3)n[nH]c2c1 | 9% |
| O=C(Nc1cc2ccccc2cc1O)c1ccccc1Sc1ccc2c(/C=C/c3ccccn3)n[nH]c2c1 | 18% |
| COc1cc(NC(=O)c2ccccc2Sc2ccc3c(/C=C/c4ccccn4)n[nH]c3c2)cc(C(F)(F)F)c1 | 10% |
| O=C(Nc1cccc2ncccc12)c1ccccc1Sc1ccc2c(/C=C/c3ccccn3)n[nH]c2c1 | −37% |

| SMILES | % inhibition |
| --- | --- |
| O=C(Nc1ccc2[nH]ccc2c1)c1ccccc1Sc1ccc2c(/C=C/c3ccccn3)n[nH]c2c1 | 43% |
| O=C(Nc1cccc(OC(F)(F)F)c1)c1ccccc1Sc1ccc2c(/C=C/c3ccccn3)n[nH]c2c1 | 5% |
| O=C(Nc1ccc(C2CCCCC2)cc1)c1ccccc1Sc1ccc2c(/C=C/c3ccccn3)n[nH]c2c1 | 1% |
| O=C(Nc1ccc(C(F)(F)F)cc1)c1ccccc1Sc1ccc2c(/C=C/c3ccccn3)n[nH]c2c1 | −3% |
| N#CCc1ccc(NC(=O)c2ccccc2Sc2ccc3c(/C=C/c4ccccn4)n[nH]c3c2)cc1 | −13% |
| CC(C)(C)c1ccc(CNC(=O)c2ccccc2Sc2ccc3c(/C=C/c4ccccn4)n[nH]c3c2)cc1 | −1% |
| CC(C)(C)c1ccc(NC(=O)c2ccccc2Sc2ccc3c(/C=C/c4ccccn4)n[nH]c3c2)cc1 | −1% |
| CCOc1ccc(NC(=O)c2ccccc2Sc2ccc3c(/C=C/c4ccccn4)n[nH]c3c2)cc1 | 16% |
| O=C(Nc1nccc2ccccc12)c1ccccc1Sc1ccc2c(/C=C/c3ccccn3)n[nH]c2c1 | 4% |
| O=C(Nc1ccc(Cl)cn1)c1ccccc1Sc1ccc2c(/C=C/c3ccccn3)n[nH]c2c1 | −23% |
| Cc1ccc(NC(=O)c2ccccc2Sc2ccc3c(/C=C/c4ccccn4)n[nH]c3c2)nc1 | −20% |
| O=C(Nc1nc2ccccc2s1)c1ccccc1Sc1ccc2c(/C=C/c3ccccn3)n[nH]c2c1 | −15% |
| Cc1cccc(NC(=O)c2ccccc2Sc2ccc3c(/C=C/c4ccccn4)n[nH]c3c2)n1 | 10% |
| Cc1cccnc1NC(=O)c1ccccc1Sc1ccc2c(/C=C/c3ccccn3)n[nH]c2c1 | −18% |
| O=C(NC1CCCc2ccccc21)c1ccccc1Sc1ccc2c(/C=C/c3ccccn3)n[nH]c2c1 (stereo not drawn) | 1% |
| COC1C=CC(CNC(=O)c2ccccc2Sc2ccc3c(/C=C/c4ccccn4)n[nH]c3c2)(OC)O1 (stereo not drawn) | 0% |
| O=C(Nc1cc(-c2cccs2)n[nH]1)c1ccccc1Sc1ccc2c(/C=C/c3ccccn3)n[nH]c2c1 | −11% |
| O=C(Nc1ccc2[nH]ncc2c1)c1ccccc1Sc1ccc2c(/C=C/c3ccccn3)n[nH]c2c1 | 22% |
| O=C(NC1(CO)CCCC1)c1ccccc1Sc1ccc2c(/C=C/c3ccccn3)n[nH]c2c1 | −5% |
| CC(C)[C@@H](CO)NC(=O)c1ccccc1Sc1ccc2c(/C=C/c3ccccn3)n[nH]c2c1 | −19% |
| O=C(Nc1ccc2[nH]nnc2c1)c1ccccc1Sc1ccc2c(/C=C/c3ccccn3)n[nH]c2c1 | −7% |
